Experimental data taken from publication PMC5549482, “Activation of Endocannabinoid Receptor 2 as a Mechanism of Propofol Pretreatment-Induced Cardioprotection against Ischemia-Reperfusion Injury in Rats” (Oxidative Medicine and Cellular Longevity, 2017).

Molecular target: T1, fatty acid amide hydrolase (FAAH) (Homo sapiens, UniProt O00519)
T1 construct: human recombinant FAAH
T1 sequence (O00519 1-579): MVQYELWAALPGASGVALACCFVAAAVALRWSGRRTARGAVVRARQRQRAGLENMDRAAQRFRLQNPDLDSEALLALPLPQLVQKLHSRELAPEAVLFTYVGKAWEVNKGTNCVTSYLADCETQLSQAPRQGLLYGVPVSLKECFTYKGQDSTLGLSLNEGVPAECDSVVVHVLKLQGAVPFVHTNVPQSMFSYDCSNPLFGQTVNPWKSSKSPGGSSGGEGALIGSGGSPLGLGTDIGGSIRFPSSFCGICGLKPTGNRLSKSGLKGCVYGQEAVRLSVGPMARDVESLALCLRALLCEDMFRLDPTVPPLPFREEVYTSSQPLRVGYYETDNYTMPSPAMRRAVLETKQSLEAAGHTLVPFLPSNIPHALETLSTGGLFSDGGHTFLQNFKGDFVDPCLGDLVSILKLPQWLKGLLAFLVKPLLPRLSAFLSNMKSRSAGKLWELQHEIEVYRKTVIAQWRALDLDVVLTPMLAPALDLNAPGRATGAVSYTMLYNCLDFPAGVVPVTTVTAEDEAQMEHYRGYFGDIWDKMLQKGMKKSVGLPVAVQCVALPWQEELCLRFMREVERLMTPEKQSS
Assay: fluorescence FAAH inhibitor screening kit (Cayman), AMC arachidonoyl amide substrate, […] propofol
Type: biochemical

Work on `CC(C)c1cccc(C(C)C)c1O` [propofol] yielded an IC50 of ~28 µM.
